“And” between values parts separate entries of the source, which are not always exact repeats. Identical values can stand only once.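 Where inhibition never reached the appropriate level, the endpoint shown equals the highest concentration tested. Otherwise, values were interpolated linearly from a five-concentration, 48-hour dose response in 96-well plates. Abbreviation: GI50, concentration required for 50% inhibition of growth. TGI: total growth inhibition.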
What follows are compounds tested on MDA-MB-468 breast (assay: inhibition of tumour cell growth, NCI panel, 48 h).

Row | SMILES | GI50 | TGI
1 | COC(=O)C(Cc1ccccc1)NC(=O)NC(=O)NC(=O)CI (centres undefined) | 4.1 µM | 15.1 µM
2 | CN(C)CCCN1c2ccccc2CCc2ccc(Cl)cc21 | 1.42 µM | 3.23 µM
3 | O=C(c1ccccc1)C(CN1CCOCC1)c1ccccc1 (centres undefined) | 0.382 µM | 1.59 µM
4 | O=C1c2c(c3c4ccccc4[nH]c3c3ccc4ccccc4c23)C(=O)N1CCN1CCCCC1 | 0.38 µM | 2.49 µM
5 | Cc1cc(NCc2cc(Nc3ccnc4cc(Cl)ccc34)ccc2F)nc(N2CCCC2)n1 | 1.33 µM | 3.07 µM
6 | C[C@]12CC[C@H]3[C@@H](CCC4=CC(=O)CC[C@@H]43)[C@@H]1CC[C@@H]2OC(=O)CCc1ccccc1 | > 61.4 µM | > 100 µM
7 | CN1CCN(Cc2ccc(NC(=O)c3cncc(C#Cc4cnc(N)c5ccncc45)c3)cc2C(F)(F)F)CC1 | 1.26 µM | 8.24 µM
8 | CCN(C(=O)N1CCN(c2cc3c(cc2F)c(=O)c(C(=O)O)cn3C2CC2)CC1)c1nc(-c2ccc(C)cc2)cs1 | 1.13 µM | 7.4 µM
9 | COc1ccc(-c2cc(-c3ccccc3)nc(SCCCC(=O)NO)n2)cc1 | 1.14 µM | 4.52 µM
10 | O=c1[nH]c2ccccc2nc1-c1c[nH]c2ccccc12 | > 100 µM | > 100 µM
11 | Cc1ccc(-c2cc(-c3ccc(C)cc3)nc(NCCNc3ccnc4cc(Cl)ccc34)n2)cc1 | 1.44 µM | 3.06 µM
12 | O=C(/C(=C/c1ccccc1)CN1CCCCC1)c1ccccc1 | 0.531 µM | 1.95 µM
13 | CS(=O)(=O)c1ccc(C(=O)Nc2ccc(Cl)c(-c3ccccn3)c2)c(Cl)c1 | 20.8 µM and 2.16 µM | > 86 µM and 9.69 µM
14 | CCN1CCC(CCOC)(CN2c3ccccc3Sc3ccc(Cl)cc32)C1 (centres undefined) | 1.66 µM | 3.37 µM
15 | Cc1ccc(C(=O)Nc2cccc(C(F)(F)F)c2)cc1Nc1nc(-c2cccnc2)nc2c1cnn2C | 3.02 µM and 1.78 µM | 8.4 µM and 4.48 µM
16 | CN(C)c1ccc2c(c1)Sc1cc(N(C)C)ccc1N2C(=O)c1ccccc1 | 44.7 µM | > 100 µM
17 | Clc1cc(Cl)c(OCC#CI)cc1Cl | 2.36 µM | 7.29 µM
18 | Cc1cc2c3ccc(C)[n+](C)c3ccc2n1C | 1.12 µM | 8.5 µM
19 | C[C@]12CCC3[C@@H](CC[C@@H]4c5nonc5CC[C@]34C)C1CCC(=O)N2 (some centres undefined) | 60.2 µM | > 100 µM
20 | O=[N+]([O-])c1cccc(-c2nc3sccn3c2-c2ccnc(NCCCNS(=O)(=O)c3cccc(F)c3)n2)c1 | 0.829 µM | 6.1 µM
21 | O=S(=O)(NCCNC/C=C/c1ccc(Br)cc1)c1cccc2cnccc12 | 3.3 µM and 5.06 µM | 13.8 µM and 18.5 µM
22 | Cc1cc(N/N=C/c2nc(-c3ccc(Br)cc3)oc2C)c2cc(Cl)ccc2n1 | > 100 µM | > 100 µM
23 | Cc1ccc(NC(=O)/C=C/c2ccccc2)c(C(N)=O)c1 | 3.17 µM | 28.1 µM
24 | CC(C)CC(CC1=CCC2CC1C2(C)C)C1=C(O)C(C)(C)C(=O)C(C)(C)C1=O (centres undefined) | 0.268 µM | 1.33 µM

Row | SMILES | GI50 | TGI
25 | C=CC(=O)N1CCN(c2ccc3cccc(NC(=O)c4cnc(C)cn4)c3n2)CC1 | 1.83 µM | 7.45 µM
26 | CC1=C(CCC(C)N(C)Cc2ccc(OCCCN3CCCC3)cc2)C(C)(C)CCC1 (centres undefined) | 2.15 µM | 5.75 µM
27 | COc1cccc(NC(=O)c2sc3nc4c(cc3c2N)CN(Cc2ccccc2)CC4)c1 | 2.6 µM | 61.4 µM
28 | C=CC(=O)N(C)[C@H]1C[C@H]2OC(C)(C1OC)n1c3ccccc3c3c4c(c5c6ccccc6n2c5c31)C(=O)NC4 (some centres undefined) | 0.0571 µM | 0.235 µM
29 | N#C/C(=C\c1c(-c2ccccc2)[nH]c2ccccc12)S(=O)(=O)c1ccccc1 | 1.86 µM | > 28.3 µM
30 | Cn1c2c(cc(S(=O)(=O)c3ccccc3)c1=O)CCc1c-2cnn1-c1ccc(Cl)cc1 | 2.39 µM | 5.65 µM
31 | CCCn1c(C)nc2c1C(=O)c1ccccc1C2=O | 18.7 µM | 56.7 µM
32 | CCC1C(c2cc(OC)c(OC)c(OC)c2)c2cc3c(cc2OC1N1CCCC1)OCO3 (centres undefined) | 4.23 µM | 25.2 µM
33 | CC(CN1CCN(CCOCCO)CC1)CN1c2ccccc2Sc2ccc(Cl)cc21 (centres undefined) | 1.69 µM | 4.14 µM
34 | CCN=C1C=CC(=C(c2ccc(N)cc2)c2ccc(N(CC)CC)c(C)c2)C=C1 | 0.193 µM | 0.718 µM
35 | COc1ccc(-c2n[nH]nc2-c2cc(OC)c3c(c2OC)OCO3)cc1 | 0.386 µM | 1.49 µM
36 | CC(C)(C)c1ccc(OCCCCCCN2CCNCC2)cc1 | 2.38 µM | 6.78 µM
37 | N/C(=N\N=C\c1ccc(-c2ccccc2)cc1)N[N+](=O)[O-] | 0.935 µM | > 100 µM
38 | Cc1ccc(C(=O)Nc2ccc(CN3CCN(C)CC3)c(C(F)(F)F)c2)cc1C#Cc1cnc2cccnn12 | 0.461 µM and 1.5 µM | 1.72 µM and 4.22 µM
39 | COc1ccc(C2CC(c3cc(OC)c(OC)c(OC)c3)=NN2C(C)=O)cc1OCC(=O)Nc1nc2ccc(C(F)(F)F)cc2s1 (centres undefined) | 6.12 µM | 29.1 µM
40 | C=C1CC[C@@H]2[C@](C)(COC(C)=O)[C@@H](O)CC[C@@]2(C)[C@@H]1COc1ccc2ccc(=O)oc2c1 | > 100 µM | > 100 µM
41 | CN(C)c1ccc(/C=C\c2cccc[n+]2C)cc1 | 0.988 µM | 5.76 µM
42 | C/C(=N\Nc1ccc2ccccc2n1)c1ccccn1 | 0.0962 µM | 0.705 µM
43 | O[C@H]1CO[C@H]2[C@@H]1OC[C@@H]2Oc1ccc(Nc2ccnc(Nc3ccc(O[C@H]4CO[C@H]5[C@@H]4OC[C@@H]5O)c(Cl)c3)n2)cc1Cl | 1.18 µM | 3.81 µM
44 | Nc1ncnc2[nH]ncc12 | 0.219 µM | 2.85 µM
45 | O=C(C1CCCCC1)[C@@H]1[C@]2(C(=O)NC3CCCCC32)[C@@H]2CCCN2[C@@]12C(=O)NC1CCC(Cl)CC12 (some centres undefined) | 121 µM | 277 µM
46 | C=CC(=O)Nc1cccc(C)c1Nc1cc(-c2cccnc2Cc2c(C)c(OC)cc(OC)c2C)ncn1 | 5.85 µM | 24.7 µM
47 | CCCn1cnc2c(c1=N)C(c1ccc(Cl)cc1)c1sc3c(C)cccc3c1O2 (centres undefined) | 0.361 µM | 3.9 µM
